Patent publication US20220347141A1, “METHODS OF TREATING PHOSPHATE CONCENTRATION DISORDERS WITH L-BAIBA” (YALE UNIVERSITY, priority 2019, published 2022)
“Also recorded” adds a separate entry of the source.

What was measured:
FGF23 synthesis in bone = experiment: Stimulation of FGF23 synthesis in bone; assay type: in vivo; details: resulting in unsuppressed FGF23 levels
WT mice = experiment: L-BAIBA or D-BAIBA in the drinking water of WT mice: urine Pi excretion, plasma Pi, plasma intact FGF23; assay type: in vivo, mouse
Procedure: FIG. 5A: 5 mo. old males treated with CO, L-BAIBA, or D-BAIBA in the drinking water for 5 days. FIGS. 5B-5D: same 5 mo. old males from FIG. 5A treated for 30 days, following sacrifice in addition to urine Pi/urine creatinine, plasma Pi and plasma intact FGF23 were determined. Data are mean±SEM, ****p<0.00002, ***p=0.0002, **p=0.002, *p=0.03 vs. CO.
Mouse lines are back-crossed to C57BL6 mice (Charles river laboratories strain ID 027) to reduce variation caused by genetic background and fed a standard chow containing 0.3% bio-available Pi (Teklad 2018S) or for selective experiments a high Pi (HPD diet, 1.2% bio-available Pi, Teklad TD85349). L-BAIBA can be supplied in the drinking water (see Chemical Reagents below). PCR-based genotyping can be done on each experimental animal using gDNA prepared by alkaline lysis from a tail- or ear-snip to verify presence of the Pit1 null, Pit2 null, HA-hPIT1^tg/+ and HSA-Cre^tg/+ alleles.
All blood and urine studies for calcium, creatinine, phosphorus, iPTH, and c/iFGF23 can be performed using commercially available Stanbio kits, Immutopics and R&D ELISAs, or LC-MS/MS-based methods. […] Results can be analyzed using a Perkin Elmer 1420 Multilabel Counter Victor 3 currently located at the Anlyan Center, S-120 or using an Applied Biosystems API6500 QTrap interfaced to a Shimadzu HPLC (LC-20AD, SIL-20AC, CTO-20A) currently located in Anlyan Center, S-260. […]

MRGPRD = biological target: T1, MRGPRD (Mus musculus, UniProt Q91ZB8); details: young mice, cited from earlier work
T1 construct: young osteocytes which express high levels of MRGPRD; endogenous in cells; host or cells: osteocytes of young mice (in vivo, hind-limb suspension)
T1 sequence (Q91ZB8 1-321): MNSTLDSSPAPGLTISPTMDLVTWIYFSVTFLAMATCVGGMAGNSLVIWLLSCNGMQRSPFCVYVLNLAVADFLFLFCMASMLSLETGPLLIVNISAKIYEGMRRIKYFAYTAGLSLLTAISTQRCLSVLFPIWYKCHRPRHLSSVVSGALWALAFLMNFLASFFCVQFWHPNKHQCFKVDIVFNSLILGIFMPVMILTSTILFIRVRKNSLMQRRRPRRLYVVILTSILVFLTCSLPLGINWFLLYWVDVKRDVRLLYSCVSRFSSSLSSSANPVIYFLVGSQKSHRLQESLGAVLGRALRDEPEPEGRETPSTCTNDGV

FGF23 = biological target: T2, FGF23 (Homo sapiens, UniProt Q9GZV9); details: individuals with XLH treated with burosumab; cited from earlier work
T2 construct: individuals treated with burosumab (Crysvita), an FGF23-neutralizing antibody therapy for XLH; endogenous in cells; host or cells: patients with XLH (in vivo, circulating hormone)
T2 sequence (Q9GZV9 25-251): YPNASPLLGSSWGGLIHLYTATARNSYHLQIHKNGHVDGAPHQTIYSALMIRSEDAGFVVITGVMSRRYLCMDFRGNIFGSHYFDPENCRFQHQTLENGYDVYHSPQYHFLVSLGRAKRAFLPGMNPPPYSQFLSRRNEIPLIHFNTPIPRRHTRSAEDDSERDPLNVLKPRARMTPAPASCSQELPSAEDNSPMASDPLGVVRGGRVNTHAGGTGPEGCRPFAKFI

Compound	FGF23 synthesis in bone (FGF23 synthesis in bone)	urine Pi excretion (urine Pi/urine creatinine) (WT mice; 5 mo. old male WT mice, in the drinking water for 5 or 30 days, vs. CO)	FGF23 levels (plasma intact FGF23) (WT mice; 5 month old WT mice treated with L-BAIBA)	osteocyte survival (MRGPRD; activation of MRGPRD, maintaining mitochondrial integrity)	bone loss caused by hind-limb suspension (MRGPRD)	fatigue and endurance reported by treated individuals (FGF23)
C[C@@H](CN)C(=O)O [L-BAIBA, (S)-3-amino-2-methylpropanoic acid]	able to stimulate FGF23 synthesis in bone	increased renal Pi-excretion; also recorded: increases urine Pi excretion; also recorded: caused a renal Pi leak	inappropriately normal	promotes osteocyte survival	prevents bone loss	
burosumab: an FGF23-neutralizing antibody therapy for XLH						improved fatigue and endurance
